Assay [1] has as its target T1, 5-hydroxytryptamine receptor 2C (Homo sapiens, UniProt P28335).
T1 sequence (P28335 whole entry): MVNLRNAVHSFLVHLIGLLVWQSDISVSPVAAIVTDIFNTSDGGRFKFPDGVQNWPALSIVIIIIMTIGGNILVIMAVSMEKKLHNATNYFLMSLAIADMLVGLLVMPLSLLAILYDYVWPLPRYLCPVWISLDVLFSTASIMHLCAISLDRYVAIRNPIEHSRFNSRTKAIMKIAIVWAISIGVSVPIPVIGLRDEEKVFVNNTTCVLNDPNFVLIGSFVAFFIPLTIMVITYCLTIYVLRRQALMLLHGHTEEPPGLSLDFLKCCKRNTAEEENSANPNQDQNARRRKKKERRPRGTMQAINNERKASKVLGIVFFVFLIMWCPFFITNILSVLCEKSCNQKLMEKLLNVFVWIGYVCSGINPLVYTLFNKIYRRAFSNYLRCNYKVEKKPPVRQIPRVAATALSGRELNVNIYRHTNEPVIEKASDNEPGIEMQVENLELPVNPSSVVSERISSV
Kind of assay: Displacement of [H]-mesulergine from CHO cells expressing human 5-hydroxytryptamine 2C receptor. In kind it is cell-based.

In assay [2] the target is 5-hydroxytryptamine receptor 2A (Homo sapiens, UniProt P28223). The experiment in a line: Displacement of [3H]ketanserin from CHO cells expressing human 5-hydroxytryptamine 2A receptor. In kind it is cell-based.
The target of a further assay is D(2) dopamine receptor (Homo sapiens, UniProt P14416). The experiment in a line: biochemical.

SMILES strings stand for the structures. A value given as a limit tells only on which side of the number the result lay.

From ChEMBL document CHEMBL1132836, “2-Aryl tryptamines: selective high-affinity antagonists for the h5-HT2A receptor” (Bioorg Med Chem Lett, 2000) come the findings set out here.

Description for D(2) dopamine receptor: Displacement of [3H]spiperone from CHO cells expressing human Dopamine receptor D2.

On to `c1ccc(-c2[nH]c3ccccc3c2CCN2CCCC2)cc1`, for which the Ki in assay [1] is 260 nM; in assay [2] it was 9 nM; on D(2) dopamine receptor, more than 1000 nM.
The corresponding values for `c1ccc(-c2[nH]c3ccccc3c2CCN2CCC2)cc1` are more than 1000 nM, 44 nM and more than 1000 nM.
With `C[C@H]1CCCCN1CCc1c(-c2ccccc2)[nH]c2ccccc12`, the Ki worked out at 230 nM in assay [1], 4 nM in assay [2] and 290 nM on D(2) dopamine receptor.
In the same order, the values of `CN(C)CCc1c(-c2ccccc2)[nH]c2ccccc12` are 180 nM, 4.4 nM and more than 1000 nM.
The corresponding values for `CCN(CC)CCc1c(-c2ccccc2)[nH]c2ccccc12` are 160 nM, 2.8 nM and more than 1000 nM.
`CCN(C)CCc1c(-c2cccc([N+](=O)[O-])c2)[nH]c2ccccc12`: the Ki in assay [1] was 36 nM; in assay [2] it was 0.14 nM; on D(2) dopamine receptor it was 39 nM.
Regarding `C[C@@H]1CCCCN1CCc1c(-c2ccccc2)[nH]c2ccccc12`, the Ki was found to be 36 nM in assay [1], 0.18 nM in assay [2] and 21 nM at D(2) dopamine receptor.
In the same order, the values of `CCN(C)CCc1c(-c2ccco2)[nH]c2ccccc12` are more than 1000 nM, more than 1000 nM and more than 1000 nM.
As to `c1ccc(-c2[nH]c3ccccc3c2CCN2CCCCC2)cc1`, the Ki in assay [1] came to 268 nM; in assay [2], 2.6 nM; at D(2) dopamine receptor it was 896 nM.
